Substitutions are numbered along the chain they refer to. Values joined by “and” are separate entries in the source; they are usually repeats but may differ in a detail not shown here. Equal values may be shown once.
How the values were obtained:
[1] = target: T1, WT IDH1 (Homo sapiens, UniProt O75874); assay: Absorbance assay, WT activity in the presence of equimolar DL-isocitrate (inhibition); assay type: biochemical; conditions: […] isocitrate and […] test compound, 75 μM NADP+, 2.0 nM WT IDH1
T1 construct: made in house; host or cells: Escherichia coli BL21(DE3) pLyS
T1 sequence (O75874 whole entry): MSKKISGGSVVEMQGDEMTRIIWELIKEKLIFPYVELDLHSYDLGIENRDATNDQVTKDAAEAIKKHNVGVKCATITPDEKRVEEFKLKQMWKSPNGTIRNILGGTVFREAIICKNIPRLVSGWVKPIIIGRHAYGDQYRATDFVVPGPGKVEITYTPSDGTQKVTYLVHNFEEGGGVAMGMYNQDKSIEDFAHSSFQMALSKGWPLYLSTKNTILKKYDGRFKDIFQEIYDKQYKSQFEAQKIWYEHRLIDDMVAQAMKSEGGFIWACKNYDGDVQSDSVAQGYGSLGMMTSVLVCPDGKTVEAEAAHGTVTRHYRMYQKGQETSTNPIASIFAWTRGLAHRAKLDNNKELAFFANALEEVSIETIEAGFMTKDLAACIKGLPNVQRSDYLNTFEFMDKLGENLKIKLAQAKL
Method in brief: (§1)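 Starting each reaction by automated reagent dispensing after simultaneous compound pipetting, the work used quadruplicate technical replicates.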

[2] = target: T2, WT IDH2 (Homo sapiens, UniProt P48735); assay: as above; assay type: biochemical; conditions: […] isocitrate and […] test compound, 75 μM NADP+, 2.0 nM WT IDH2
T2 construct: made in house; host or cells: Sf21 insect cells (cell pellets prepared at Evotec)
T2 sequence (P48735 40-452): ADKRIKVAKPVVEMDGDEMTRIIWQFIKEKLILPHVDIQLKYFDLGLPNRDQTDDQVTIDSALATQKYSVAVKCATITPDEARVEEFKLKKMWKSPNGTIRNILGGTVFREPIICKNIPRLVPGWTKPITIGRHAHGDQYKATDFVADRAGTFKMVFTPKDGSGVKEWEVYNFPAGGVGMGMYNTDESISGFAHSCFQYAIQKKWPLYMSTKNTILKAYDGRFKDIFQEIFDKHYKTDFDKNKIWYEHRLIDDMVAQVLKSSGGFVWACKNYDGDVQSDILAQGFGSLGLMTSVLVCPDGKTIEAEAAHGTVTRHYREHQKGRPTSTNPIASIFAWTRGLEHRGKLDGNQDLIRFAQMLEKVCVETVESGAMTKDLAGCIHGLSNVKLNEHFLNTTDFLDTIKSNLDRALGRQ
Method in brief: as §1

[3] = target: T3, R132H IDH1 (Homo sapiens, UniProt O75874, R132H); assay: Electrochemical assay (FNR+R132H IDH1)@ITO/PGE electrode; assay type: biochemical; design: made in house; host or cells: Escherichia coli BL21(DE3) pLyS (IDH1 R132H)
Protocol: Assays were carried out in an anaerobic glovebox (Glove Box Technology) under a nitrogen atmosphere. A potentiostat (Autolab PGSTAT 10) running on Nova software was used for all experiments. As previously described, the electrochemical apparatus included an Autolab electrode rotator, a two-chamber custom-made glass electrochemical cell, and custom-made rotating pyrolytic graphite edge (PGE) electrodes ([55]). Platinum wire was used as the counter electrode; it was placed in the working electrode chamber. Electrode potentials (E) were measured against a saturated calomel electrode and converted to the standard hydrogen electrode using a temperature-dependent equation (at 25 °C: ESHE = ESCE + 0.2412 V) ([55]). Nanoporous indium tin oxide (ITO) electrodes were made by electrophoretically depositing ITO nanoparticles (<50 nm, Sigma-Aldrich) onto PGE electrodes (ITO/PGE) as previously described ([55]). […] In all experiments, 0.85 nmol (homodimer basis) of IDH1 R132H was used; the amount of coloaded FNR was adjusted to achieve the desired enzyme loading ratio. Electrodes loaded with enzyme were thoroughly rinsed using buffer solution before each experiment to remove excess enzyme. […]
and controlled electrochemically under steady-state conditions (1).
Conditions: 25 °C, mixed buffer (20 […]
mM each MES, TAPS, CHES, pH 8.0), 10 mM MgCl2, 10 µM NADPH, 4 mL cell volume, (FNR+R132H IDH1)@ITO/PGE electrode, electrode area 0.06 cm2, rotated at 1000 rpm, E = –0.513 V vs SHE, enzyme loading ratios (molar): FNR/R132H IDH1; 2.5 (dimer basis).
(§2) (1 picture or pasted object on this page, not shown here)
Target sequence in this assay (O75874 2-414 R132H): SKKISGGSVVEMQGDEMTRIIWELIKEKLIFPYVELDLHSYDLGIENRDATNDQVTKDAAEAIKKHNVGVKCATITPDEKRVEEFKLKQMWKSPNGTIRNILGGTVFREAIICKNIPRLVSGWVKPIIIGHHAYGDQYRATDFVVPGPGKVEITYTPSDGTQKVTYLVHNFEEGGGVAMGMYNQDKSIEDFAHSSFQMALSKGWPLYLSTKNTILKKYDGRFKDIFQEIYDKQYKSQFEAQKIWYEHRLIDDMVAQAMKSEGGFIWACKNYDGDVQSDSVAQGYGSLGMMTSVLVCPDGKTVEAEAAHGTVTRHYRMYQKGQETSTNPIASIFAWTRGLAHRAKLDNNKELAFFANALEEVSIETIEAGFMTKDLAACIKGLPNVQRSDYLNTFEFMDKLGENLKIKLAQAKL

[4] = target: T3, R132H IDH1; assay: CPMG 1H NMR binding study; design: made in house; host or cells: Escherichia coli BL21(DE3) pLyS; conditions: 50 µM ligand, R132H IDH1 titrated, 10 mM CaCl2, pH 7.5
Protocol: Binding studies were performed at 298K in buffer (50 mM Tris-d11, pH 7.5, 10%v/v D2O, 10 mM CaCl2) using CPMG NMR spectroscopy ([56]) and a water suppression pulse sequence.
similar manner as does 2OG. 1H NMR (CPMG-edited (2), 700 MHz) binding studies of R132H IDH1 with (a)
2OG/2OG derivative. […] Red spectra: 50 µM
Assays were performed as described in the Experimental
Procedures Section by titrating a concentrated R132H IDH1 stock solution (1.4 mM) into a mixture containing
as §2
Target sequence in this assay (O75874 whole entry R132H): as the sequence (O75874 whole entry) above, with R132H counted along it

[5] = target: T3, R132H IDH1; assay: Absorbance assay, variant activity in the presence of equimolar 2OG (inhibition screen); assay type: biochemical; design: made in house; host or cells: Escherichia coli BL21(DE3) pLyS; conditions: […] 2OG and […] test compound, 0.03 μM R132H IDH1, 50 μM NADPH
Method in brief: as §1
Target sequence in this assay (O75874 whole entry R132H): as the sequence (O75874 whole entry) above, with R132H counted along it

[6] = target: T4, R132C/S280F IDH1 (Homo sapiens, UniProt O75874, R132C/S280F); assay: Steady-state kinetics, NADPH turnover assay; assay type: biochemical
T4 construct: made in house
T4 sequence (O75874 whole entry R132C/S280F): as the sequence (O75874 whole entry) above, with R132C, S280F counted along it
Protocol: independent runs, each composed of technical duplicates (n = 2; mean ± SD); c) R132C/S280F IDH1 assays
monitoring NADPH turnover were performed as reported (3). […]

[7] = target: T5, R140Q IDH2 (Homo sapiens, UniProt P48735, R140Q); assay: Steady-state kinetics, absorbance assay; assay type: biochemical; conditions: 0.03 μM enzyme, 50 μM NADPH, 20 mM MgCl2, pH 8.0
T5 construct: made in house; host or cells: Sf21 insect cells (cell pellets prepared at Evotec)
T5 sequence (P48735 40-452 R140Q): T2 sequence (P48735 40-452) with R101Q
Protocol: Compounds were dispensed using a CyBio SDW-CW CyBi-Well Simultaneous Pipettor and assay started using a ThermoFisher Multidrop Combi reagent dispenser.
Reactions were performed as technical duplicates, and all assays were carried out in two independent duplicates.

activity [%] (%-substrate conversion after 20 min incubation) [1]: 93 ± 1%
activity [%] (%-substrate conversion after 20 min incubation) [2]: 91 ± 1%
predicted change in catalytic rate [3]: −9%
Kmapp (electrochemical assay) ([3]; 25 °C, pH 8.0, 10 mM MgCl2, 10 µM NADPH, nanoconfined enzyme): ~0.6 mM
decrease of R132H IDH1 faradaic 'coupled' current during each scan ([3]; cyclic voltammetry, stationary electrode, 20 μM NADPH, 10 mM MgCl2, pH 8): −10%
signal depletion (CPMG 1H NMR) [4]: ~80%
activity [%] (%-substrate conversion after 20 min incubation) [5]: 100%
Kmapp [6]: 0.04 ± 0.01 mM
Kmapp [7]: 5.1 ± 1.2 mM and ~5.1 mM
kcatapp [7]: 0.49 ± 0.04 s⁻¹ and 0.5 to 0.7 s⁻¹
SMILES: O=C(O)CCC(=O)C(=O)O [2OG, 2-oxoglutarate, reference compound]
